What was measured:
[1] = molecular target: HIV-1 reverse transcriptase (Human immunodeficiency virus type 1 group M subtype B, UniProt P04585); assay: Inhibition of HIV-1 reverse transcriptase; assay type: biochemical, human immunodeficiency virus type 1 (HIV-1)
HBV DNA polymerases = HBV DNA polymerases (Hepatitis B virus genotype D subtype ayw, UniProt P03156); assay: Inhibition of HBV DNA polymerases; assay type: biochemical; conditions: activity compared with the (S)-enantiomer
Sequence of HBV DNA polymerases (P03156 whole entry): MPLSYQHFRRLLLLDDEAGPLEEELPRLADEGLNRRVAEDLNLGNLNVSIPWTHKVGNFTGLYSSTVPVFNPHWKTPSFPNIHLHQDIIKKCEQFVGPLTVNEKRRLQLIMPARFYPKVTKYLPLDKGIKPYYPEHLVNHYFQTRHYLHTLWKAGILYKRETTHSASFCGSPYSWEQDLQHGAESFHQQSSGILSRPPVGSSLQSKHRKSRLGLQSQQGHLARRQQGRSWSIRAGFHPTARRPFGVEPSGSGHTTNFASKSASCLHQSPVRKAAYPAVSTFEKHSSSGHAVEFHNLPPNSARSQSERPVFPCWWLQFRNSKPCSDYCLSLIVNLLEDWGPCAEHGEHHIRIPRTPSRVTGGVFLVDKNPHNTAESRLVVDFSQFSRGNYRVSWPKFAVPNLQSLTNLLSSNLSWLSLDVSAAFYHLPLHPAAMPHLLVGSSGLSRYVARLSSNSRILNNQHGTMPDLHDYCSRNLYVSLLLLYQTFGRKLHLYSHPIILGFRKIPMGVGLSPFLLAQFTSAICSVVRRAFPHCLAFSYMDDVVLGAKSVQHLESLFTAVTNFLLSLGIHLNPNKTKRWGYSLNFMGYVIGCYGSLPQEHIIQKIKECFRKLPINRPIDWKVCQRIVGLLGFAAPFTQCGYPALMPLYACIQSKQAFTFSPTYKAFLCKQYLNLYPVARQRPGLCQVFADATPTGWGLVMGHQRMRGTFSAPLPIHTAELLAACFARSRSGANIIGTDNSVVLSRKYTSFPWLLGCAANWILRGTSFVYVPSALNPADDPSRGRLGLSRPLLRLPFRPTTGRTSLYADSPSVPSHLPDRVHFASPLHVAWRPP

| Compound | inhibition of HIV-1 reverse transcriptase ([1]; activity compared with the (S)-enantiomer) | inhibition of HBV DNA polymerases (HBV DNA polymerases) | inhibition of RNA-directed DNA polymerase (reverse transcriptase) activity of HIV-1 [1] |
| --- | --- | --- | --- |
| Nc1nc2c(ncn2CC[C@H](CO)COP(=O)(O)OP(=O)(O)OP(=O)(O)O)c(=O)[nH]1 (single isomer, unassigned) [(R)-enantiomer of PCV-TP] | more active than the (S)-enantiomer | more active than the (S)-enantiomer | – |
| penciclovir triphosphate [triphosphate derivative of penciclovir, reference compound] | – | – | inhibits |

— US20060069108A1, “Use of (R)-penciclovir triphosphate for the manufacture of a medicament for the treatment of viral diseases” (priority 1995, published 2006)
